Laboratory results: ChEMBL document CHEMBL5532659, “Design, Synthesis, and Evaluation of Cephamycin-Based Antisporulation Agents targeting Clostridioides difficile” (J Med Chem, 2024)
Converted amounts (≈) assume the structure as drawn. The source made the active and inactive calls. The rule behind the calls is not given here.

What was measured:
[1] = test system: Clostridioides difficile; experiment: Anti-sporulation activity against Clostridium difficile M7404 assessed as fold reduction in spore count incubated overnight by absorbance based assay relative to control; type: functional
[2] = Cytotoxicity against HEK293 cells incubated for 20 hrs by resazurin dye based assay; type: toxicity, cell-based; conditions: human
[3] = test system: Pseudomonas aeruginosa; experiment: Antimicrobial activity against Pseudomonas aeruginosa ATCC 27853 assessed as microbial growth inhibition incubated for 18 hrs; type: functional
[4] = Inhibition of Clostridium difficile SpoVD using Boc-FL as substrate preincubated for 30 mins followed by substrate addition measured after 30 mins by FP assay; design: species or system Clostridioides difficile
[5] = test system: Staphylococcus aureus; experiment: Antimicrobial activity against methicillin-resistant Staphylococcus aureus ATCC 43300 assessed as microbial growth inhibition incubated for 18 hrs; type: functional
[6] = test system: Candida albicans; experiment: Antimicrobial activity against Candida albicans ATCC 90028 assessed as microbial growth inhibition incubated for 36 hrs by resazurin dye based assay; type: functional
[7] = test system: Clostridioides difficile; experiment: Antimicrobial activity against Clostridium difficile assessed as microbial growth inhibition incubated for 18 hrs; type: functional
[8] = test system: Cryptococcus neoformans; experiment: Antimicrobial activity against Cryptococcus neoformans ATCC 208821 assessed as microbial growth inhibition incubated for 36 hrs by resazurin dye based assay; type: functional
[9] = test system: Escherichia coli; experiment: Antimicrobial activity against Escherichia coli ATCC 25922 assessed as microbial growth inhibition incubated for 18 hrs; type: functional
[10] = test system: Erythrocyte; experiment: Hemolytic activity in human RBC incubated for 70 mins by absorbance based assay; type: toxicity, cell-based; conditions: 1.167 h
[11] = test system: Klebsiella pneumoniae; experiment: Antimicrobial activity against multidrug-resistant Klebsiella pneumoniae ATCC 700603 assessed as microbial growth inhibition incubated for 18 hrs; type: functional
[12] = test system: Acinetobacter baumannii; experiment: Antimicrobial activity against Acinetobacter baumannii ATCC 19603 assessed as microbial growth inhibition incubated for 18 hrs; type: functional
[13] = test system: Clostridioides difficile; experiment: Anti-sporulation activity against Clostridium difficile M7404 infected in C57BL/6J mouse model assessed as reduction in spore shedding in faeces at 50 ug/ml pre-infected for 6 hrs followed by compound treatment measured for 2 to 4 days post-infection; type: functional, organism-based; conditions: dose 50.0 µg/ml, time 42-90 hrs

| Compound | fold change (FC) [1] | CC50 at 20 h [2] [µg/mL] | MIC50 [3] [µg/mL] | IC50 [4] [nM] | MIC50 [5] [µg/mL] | MIC50 [6] [µg/mL] | MIC50 [7] [µg/mL] | MIC50 [8] [µg/mL] | MIC50 [9] [µg/mL] | HC10 [10] [µg/mL] | MIC50 [11] [µg/mL] | MIC50 [12] [µg/mL] | Activity [13] |
| --- | --- | --- | --- | --- | --- | --- | --- | --- | --- | --- | --- | --- | --- |
| CO[C@@]1(NC(=O)Cn2cc(-c3cccc4cccnc34)nn2)C(=O)N2C(C(=O)O)=C(CSc3nnnn3C)CS[C@@H]21 | 100 | > 32 | > 32 | 472 | 32 (≈ 53.8 µM) | > 32 | > 40 | > 32 | > 32 | > 32 | > 32 | > 32 |  |
| COc1ccc(-c2cn(CC(=O)N[C@]3(OC)C(=O)N4C(C(=O)O)=C(CSc5nnnn5C)CS[C@@H]43)nn2)cc1 | 100 | > 32 | > 32 | > 15000 | 32 (≈ 55.8 µM) | > 32 | 10 (≈ 17.4 µM) | > 32 | 32 (≈ 55.8 µM) | > 32 | > 32 | > 32 |  |
| CO[C@@]1(NC(=O)Cn2cc(-c3ccc(C#N)cc3)nn2)C(=O)N2C(C(=O)O)=C(CSc3nnnn3C)CS[C@@H]21 | >100000 | > 32 | > 32 | 72 | > 32 | > 32 | > 40 | > 32 | 32 (≈ 56.3 µM) | > 32 | > 32 | > 32 |  |
| CO[C@@]1(NC(=O)Cn2cc(C(C)(C)O)nn2)C(=O)N2C(C(=O)O)=C(CSc3nnnn3C)CS[C@@H]21 | 100 | 0.7 (≈ 1.33 µM) | > 32 |  | 32 (≈ 60.9 µM) | > 32 | 40 (≈ 76.1 µM) | > 32 | 32 (≈ 60.9 µM) | 17 | 32 (≈ 60.9 µM) | > 32 |  |
| CO[C@@]1(NC(=O)C2SC(=C(C(N)=O)C(=O)O)S2)C(=O)N2C(C(=O)O)=C(CSc3nnnn3C)CS[C@@H]21 (some centres undefined) [CEFOTETAN] | 10000 | > 32 | > 32 | 15 | > 32 | > 32 | 20 (≈ 34.7 µM) | > 32 | 4 (≈ 6.95 µM) | > 32 | > 32 | > 32 |  |
| CO[C@@]1(NC(=O)Cn2cc(CCC(C)C)nn2)C(=O)N2C(C(=O)O)=C(CSc3nnnn3C)CS[C@@H]21 | 1000 | 16.1 (≈ 29.9 µM) | > 32 | 142 | 32 (≈ 59.5 µM) | > 32 | 5 (≈ 9.3 µM) | > 32 | 32 (≈ 59.5 µM) | > 32 | > 32 | > 32 |  |
| CO[C@@]1(NC(=O)Cn2cc(C3CCCCC3)nn2)C(=O)N2C(C(=O)O)=C(CSc3nnnn3C)CS[C@@H]21 | >100000 | > 32 | > 32 | 90 | 32 (≈ 58.2 µM) | > 32 | 5 (≈ 9.1 µM) | > 32 | 32 (≈ 58.2 µM) | 10 | > 32 | > 32 |  |
| CO[C@@]1(NC(=O)Cn2cc(-c3cccc(C(=O)O)c3)nn2)C(=O)N2C(C(=O)O)=C(CSc3nnnn3C)CS[C@@H]21 | 1000 | > 32 | > 32 | 69 | 32 (≈ 54.5 µM) | > 32 | 5 (≈ 8.51 µM) | > 32 | 8 (≈ 13.6 µM) | > 32 | 32 (≈ 54.5 µM) | > 32 |  |
| CO[C@@]1(NC(=O)Cn2cc(CO)nn2)C(=O)N2C(C(=O)O)=C(CSc3nnnn3C)CS[C@@H]21 | 10 | > 32 | > 32 | 369 | 32 (≈ 64.3 µM) | > 32 | 10 (≈ 20.1 µM) | > 32 | 16 (≈ 32.2 µM) | > 32 | 16 (≈ 32.2 µM) | > 32 |  |
| CO[C@@]1(NC(=O)Cn2cc(-c3cccc4ccccc34)nn2)C(=O)N2C(C(=O)O)=C(CSc3nnnn3C)CS[C@@H]21 | >100000 | > 32 | > 32 | 86 | 8 (≈ 13.5 µM) | > 32 | 40 (≈ 67.4 µM) | > 32 | 32 (≈ 53.9 µM) | > 32 | > 32 | > 32 |  |
| CO[C@@]1(NC(=O)Cn2cc(-c3ccccc3)nn2)C(=O)N2C(C(=O)O)=C(CSc3nnnn3C)CS[C@@H]21 | >100000 | > 32 | > 32 | 89 | 32 (≈ 58.9 µM) | > 32 | 5 (≈ 9.2 µM) | > 32 | 32 (≈ 58.9 µM) | > 32 | 32 (≈ 58.9 µM) | > 32 | Active |
| CO[C@@]1(NC(=O)Cn2cc(-c3ccc4ccccc4c3)nn2)C(=O)N2C(C(=O)O)=C(CSc3nnnn3C)CS[C@@H]21 | >100000 | > 32 | > 32 | 54 | 32 (≈ 53.9 µM) | > 32 | 20 (≈ 33.7 µM) | > 32 | > 32 | > 32 | > 32 | > 32 |  |
| CO[C@@]1(NC(=O)Cn2cc(-c3ccc(C(=O)O)cc3)nn2)C(=O)N2C(C(=O)O)=C(CSc3nnnn3C)CS[C@@H]21 | 1000 | > 32 | > 32 | 115 | 32 (≈ 54.5 µM) | > 32 | 10 (≈ 17 µM) | > 32 | 32 (≈ 54.5 µM) | > 32 | 32 (≈ 54.5 µM) | > 32 |  |
| CO[C@@]1(NC(=O)Cn2cc(C(=O)O)nn2)C(=O)N2C(C(=O)O)=C(CSc3nnnn3C)CS[C@@H]21 | 100 | > 32 | > 32 |  | ≤ 0.25 | > 32 | 20 (≈ 39.1 µM) | > 32 | 16 (≈ 31.3 µM) | > 32 | > 32 | > 32 |  |
| CO[C@@]1(NC(=O)Cn2cc(-c3cccc(F)c3)nn2)C(=O)N2C(C(=O)O)=C(CSc3nnnn3C)CS[C@@H]21 | 1000 | 13.2 (≈ 23.5 µM) | > 32 | 131 | 32 (≈ 57 µM) | > 32 | 5 (≈ 8.9 µM) | > 32 | 32 (≈ 57 µM) | > 32 | > 32 | > 32 |  |
